Read-outs that look alike come from different tables or passages of the source.
Key:
tumor cells [1] = experiment: MTS proliferation assay (72 h read-out); format: cell-based
Outline: (§1)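 Tumour cells (1.5×10^3–10^4 per well) were seeded 24 h before compound addition, then exposed to 0.001–10 μM final compound for 72 h under culture conditions. MTS reagent was added for a further 3 h, absorbance was read at 492 nm, and results were binned into scores A–D.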

[2] = MTS proliferation assay (72 h read-out); format: cell-based; conditions: MRC5 cells
Outline: as §1

H460 = experiment: Colony Forming Units (read-out 6 days), H460; format: cell-based, human; conditions: colonies containing more than 30 cells, read-out: Colony Forming Units, score based on IC50, H460
Experimental: (§2) Appropriate numbers of cells (100-150 cells, dependent on the cell type) are being seeded out in 1 ml complete medium into 6-well plates and allowed to attach for 48 h. The compounds are added after 48 h in 500 μl solution. The concentrations are in the range of 0.001 μM-3 μM. Control plates receive the same volume of medium containing the appropriate amount of DMSO. The plates are incubated for 5-7 days at cell culture conditions and subsequently scored for growth of colonies (containing more than 30 cells) by using a microscope.

tumor cells [3] = experiment: Mitochondrial membrane potential, JC-1 (read-out 48 h); format: cell-based; conditions: JC-1, 48 h
Outline: (§3)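 Tumor cells were treated with test compounds (adherent cells after 24 h of attachment, suspension cells immediately), medium holding up to 5% DMSO. After 48 h, JC-1 (2-5 μg/ml in added medium) was applied for 30 min. Fluorescence microscopy (FITC/TRITC filters) scored the fraction of cells with dissipated mitochondrial membrane potential as categories A-D.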

[4] = as above; format: cell-based; conditions: PBL, JC-1, 48 h
Outline: as §3

HeLa = experiment: Colony Forming Units (read-out 6 days), HeLa; format: cell-based, human; conditions: colonies containing more than 30 cells, read-out: Colony Forming Units, score based on IC50, HeLa
Experimental: as §2

tumor cells [5] = experiment: Hoechst 33342 nuclear staining (48 h read-out); format: cell-based
Outline: (§4)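 Adherent cells pre-spread 24 h before dosing, suspension cells dosed at seeding; compounds at 0.001 μM-10 μM final, 48 h at culture conditions. Hoechst 33342 (2-5 μg/ml) added for 30 min, then fluorescence microscopy scoring of apoptotic nuclear fraction and apoptosis-specific morphology, reported as scores A-D.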

[6] = Hoechst 33342 nuclear staining (48 h read-out); format: cell-based
Outline: as §4

[7] = Homo sapiens, HT-1080, HT1080 cells, read-out: MTS proliferation assay IC50, HT1080
[8] = Homo sapiens, HeLa cells, read-out: MTS proliferation assay IC50, HeLa
[9] = Homo sapiens, Jurkat cells, read-out: MTS proliferation assay IC50, Jurkat
[10] = Jily cells, read-out: MTS proliferation assay IC50, Jily
[11] = Homo sapiens, HeLa cells, read-out: Mitochondrial membrane potential (read-out 48 h) HeLa
[12] = Homo sapiens, Jurkat cells, read-out: Mitochondrial membrane potential (read-out 48 h) Jurkat
[13] = Homo sapiens, MCF7 cells, read-out: Mitochondrial membrane potential (read-out 48 h) MCF7
[14] = Jily cells, read-out: Mitochondrial membrane potential (read-out 48 h) Jily
[15] = Homo sapiens, HeLa cells, read-out: Hoechst 33342 nuclear staining EC50, HeLa
[16] = Homo sapiens, Jurkat cells, read-out: Hoechst 33342 nuclear staining EC50, Jurkat
[17] = Jily cells, read-out: Hoechst 33342 nuclear staining EC50, Jily
[18] = Homo sapiens, MRC5 cells, read-out: Hoechst 33342 nuclear staining EC50, MRC5
[19] = PBL, read-out: Hoechst 33342 nuclear staining EC50, PBL
[20] = HT1080 cells, read-out: MTS proliferation assay IC50, HT1080
[21] = HeLa cells, read-out: MTS proliferation assay IC50, HeLa
[22] = Jurkat cells, read-out: MTS proliferation assay IC50, Jurkat
[23] = HeLa cells, read-out: Mitochondrial membrane potential (read-out 48 h) HeLa
[24] = Jurkat cells, read-out: Mitochondrial membrane potential (read-out 48 h) Jurkat
[25] = MCF7 cells, read-out: Mitochondrial membrane potential (read-out 48 h) MCF7
[26] = HeLa cells, read-out: Hoechst 33342 nuclear staining EC50, HeLa
[27] = Jurkat cells, read-out: Hoechst 33342 nuclear staining EC50, Jurkat
[28] = MRC5 cells, read-out: Hoechst 33342 nuclear staining EC50, MRC5

SMILES	IC50 (tumor cells [1]; [7]) [nM]	IC50 (tumor cells [1]; [8]) [nM]	IC50 (tumor cells [1]; [9]) [nM]	IC50 (tumor cells [1]; [10]) [nM]	EC50 (tumor cells [3]; [11]) [nM]	EC50 (tumor cells [3]; [12]) [nM]	EC50 (tumor cells [3]; [13]) [nM]	EC50 (tumor cells [3]; [14]) [nM]	EC50 [4] [nM]	EC50 (tumor cells [5]; [15]) [nM]	EC50 (tumor cells [5]; [16]) [nM]	EC50 (tumor cells [5]; [17]) [nM]	EC50 [6, 18] [nM]	EC50 [6, 19] [nM]	EC50 (tumor cells [3]; [23]) [nM]	EC50 (tumor cells [3]; [24]) [nM]	EC50 (tumor cells [3]; [25]) [nM]	EC50 (tumor cells [5]; [26]) [nM]	EC50 (tumor cells [5]; [27]) [nM]	EC50 [6, 28] [nM]	also measured
CCOc1ccccc1C(=O)c1oc2ccc(Cl)cc2c1N [Example 2, 3-Amino-5-chloro-2-(2-ethoxybenzoyl)-benzofuran]	10 to 100	10 to 100	< 10	10 to 100	10 to 100	< 10	100 to 1000	10 to 100	> 1000	10 to 100	< 10	10 to 100	10 to 100	> 1000							IC50 ([2]; Homo sapiens): 10 to 100 nM; IC50 (H460; Homo sapiens, NCI-H460, 144 h): 10 to 100 nM; IC50 (HeLa; Homo sapiens, 144 h): 10 to 100 nM
CCOc1ccc([N+](=O)[O-])cc1C(=O)c1oc2ccc(Cl)cc2c1N [Example 3, 3-Amino-5-chloro-2-(2-ethoxy-5-nitrobezoyl)-benzofuran]	< 10	< 10	< 10	< 10	< 10	< 10	10 to 100	< 10	> 1000	< 10	< 10	< 10	< 10	> 1000							IC50 ([2]; Homo sapiens): < 10 nM; IC50 (H460; Homo sapiens, NCI-H460, 144 h): < 10 nM; IC50 (HeLa; Homo sapiens, 144 h): < 10 nM
C=CCOc1ccc(OC)cc1C(=O)c1oc2ccc(Cl)cc2c1N [Example 4, 3-Amino-5-chloro-2-(2-allyloxy-5-methoxybenzoyl)-benzofuran]					10 to 100	10 to 100	10 to 100	10 to 100	> 1000	10 to 100	10 to 100	10 to 100	10 to 100	> 1000							IC50 (H460; Homo sapiens, NCI-H460, 144 h): 10 to 100 nM; IC50 (HeLa; Homo sapiens, 144 h): 10 to 100 nM
COCCOc1ccccc1C(=O)c1oc2ccc(Cl)cc2c1N [Example 6]				100 to 1000				100 to 1000	> 1000			100 to 1000		> 1000	100 to 1000	100 to 1000	100 to 1000	100 to 1000	100 to 1000	> 1000	IC50 (tumor cells [1]; [20]): > 1000 nM; IC50 (tumor cells [1]; [21]): 100 to 1000 nM; IC50 (tumor cells [1]; [22]): 100 to 1000 nM; IC50 [2]: > 1000 nM; IC50 (H460): 100 to 1000 nM; IC50 (HeLa): 100 to 1000 nM
C#CCOc1ccccc1C(=O)c1oc2ccc(Cl)cc2c1N [Example 8]				10 to 100				100 to 1000	> 1000			100 to 1000		> 1000	100 to 1000	100 to 1000	100 to 1000	100 to 1000	10 to 100	> 1000	IC50 (tumor cells [1]; [20]): 100 to 1000 nM; IC50 (tumor cells [1]; [21]): 100 to 1000 nM; IC50 (tumor cells [1]; [22]): 10 to 100 nM; IC50 [2]: 100 to 1000 nM; IC50 (H460): 100 to 1000 nM; IC50 (HeLa): 100 to 1000 nM
C#CCOc1ccc(OC)cc1C(=O)c1oc2ccc(Cl)cc2c1N [Example 13]				10 to 100				100 to 1000	> 1000			100 to 1000			100 to 1000	100 to 1000	100 to 1000	100 to 1000	100 to 1000	100 to 1000	IC50 (tumor cells [1]; [20]): 100 to 1000 nM; IC50 (tumor cells [1]; [21]): 100 to 1000 nM; IC50 (tumor cells [1]; [22]): 10 to 100 nM; IC50 [2]: 100 to 1000 nM; IC50 (H460): 100 to 1000 nM; IC50 (HeLa): 100 to 1000 nM
Nc1c(C(=O)c2cccnc2N2CCOCC2)oc2ccc(Cl)cc12 [Example 37, 3-Amino-5-chloro-2-(2-morpholino-3-pyridylcarbonyl)-benzofuran]	10 to 100	10 to 100	< 10	10 to 100	100 to 1000	10 to 100	> 1000	10 to 100	> 1000	10 to 100	10 to 100	10 to 100	> 1000	> 1000							IC50 ([2]; Homo sapiens): 10 to 100 nM; IC50 (H460; Homo sapiens, NCI-H460, 144 h): 10 to 100 nM; IC50 (HeLa; Homo sapiens, 144 h): 10 to 100 nM
COc1ccc2oc(C(=O)c3cc(F)ccc3N3CCOCC3)cc2c1 [Example 38, 2-(5-Fluoro-2-morpholinobenzoyl)-5-methoxybenzofuran]	10 to 100	10 to 100	10 to 100	10 to 100	10 to 100	10 to 100	10 to 100	10 to 100	> 1000	10 to 100	< 10	< 10	10 to 100	> 1000							IC50 ([2]; Homo sapiens): 10 to 100 nM; IC50 (H460; Homo sapiens, NCI-H460, 144 h): < 10 nM; IC50 (HeLa; Homo sapiens, 144 h): < 10 nM
COc1ccc2oc(C(=O)c3cc(F)ccc3N3CCCCC3)cc2c1 [Example 96]								10 to 100	> 1000			100 to 1000		> 1000	10 to 100	10 to 100	10 to 100	100 to 1000	100 to 1000	100 to 1000	IC50 (H460): 10 to 100 nM; IC50 (HeLa): 10 to 100 nM
CCOc1ccc(F)cc1C(=O)COc1ccc(Cl)cc1C#N [Example 143, ω-(4-Chloro-2-cyanophenoxy)-2-ethoxy-5-fluoroacetophenone]	10 to 100	10 to 100	10 to 100	10 to 100	10 to 100	< 10	10 to 100		> 1000	10 to 100	< 10	< 10	< 10	> 1000							IC50 ([2]; Homo sapiens): 10 to 100 nM
COc1ccccc1C(=O)c1oc2ccc(Cl)cc2c1N [Ref B, reference compound]				100 to 1000				100 to 1000	100 to 1000			100 to 1000		> 1000	> 1000	100 to 1000	> 1000	> 1000	100 to 1000	> 1000	IC50 (tumor cells [1]; [20]): 100 to 1000 nM; IC50 (tumor cells [1]; [21]): 100 to 1000 nM; IC50 (tumor cells [1]; [22]): 100 to 1000 nM; IC50 [2]: 100 to 1000 nM
COc1ccc(OC)c(C(=O)c2oc3ccc(Cl)cc3c2O)c1 [Ref C, reference compound]				> 1000				> 1000	> 1000			> 1000		> 1000	> 1000	> 1000	> 1000	> 1000	> 1000	> 1000	IC50 (tumor cells [1]; [20]): > 1000 nM; IC50 (tumor cells [1]; [21]): > 1000 nM; IC50 (tumor cells [1]; [22]): > 1000 nM; IC50 [2]: > 1000 nM
COc1ccc(OC)c(C(=O)COc2ccc(Cl)cc2C#N)c1 [Ref D, reference compound]				100 to 1000					> 1000			100 to 1000		> 1000	> 1000	100 to 1000	> 1000	> 1000	100 to 1000	> 1000	IC50 (tumor cells [1]; [20]): > 1000 nM; IC50 (tumor cells [1]; [21]): 100 to 1000 nM; IC50 (tumor cells [1]; [22]): 100 to 1000 nM; IC50 [2]: > 1000 nM
COc1ccc(OC)c(C(=O)c2oc3ccccc3c2O)c1 [Reference Example A, 2-(2,5-dimethoxybenzoyl)-3-hydroxybenzofuran, reference compound]	> 1000	> 1000	> 1000	> 1000	> 1000	> 1000	> 1000	> 1000	> 1000	> 1000	> 1000	> 1000	> 1000	> 1000							IC50 ([2]; Homo sapiens): > 1000 nM
